In PubChem BioAssay (NCI) one finds TGI data, which are given here for seven compounds.

SMILES strings stand for the structures.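 Five compound concentrations were applied to cells in 96-well plates for 48 hours; endpoints were derived by simple linear interpolation of the resulting dose-response curve. TGI is the concentration that stops growth completely.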 Bounds are passed on as bounds.

Test systems include SNB-19 CNS; SNB-75 CNS; NCI-H460 lung; OVCAR-5 ovarian; COLO 205 colon; SN12C renal; NCI-H226 lung; RXF 393 renal; SR leukemia; U251 CNS; MDA-MB-231 breast; DU-145 prostate; UACC-62 melanoma; ACHN renal; NCI/ADR-RES ovarian; K-562 leukemia; HOP-92 NSCLC; UO-31 renal; TK-10 renal.
Holding throughout (experiment): NCI tumour cell line growth inhibition, 48 h

As to `O=[N+]([O-])c1cccc(-c2cn3c(n2)Cc2ccccc2C3)c1`, the TGI in the experiment on SNB-19 CNS is greater than 100 µM; in the experiment with SNB-75 CNS it was greater than 100 µM; with NCI-H460 lung, greater than 100 µM; in the experiment on OVCAR-5 ovarian, 79.9 µM; in the experiment with COLO 205 colon, greater than 100 µM; in the experiment with SN12C renal it was greater than 100 µM. For the same compound, the TGI is greater than 100 µM in the experiment on NCI-H226 lung; greater than 100 µM in the experiment on RXF 393 renal; greater than 100 µM with SR leukemia; greater than 100 µM in the experiment on U251 CNS; 67.6 µM in the experiment on MDA-MB-231 breast; greater than 100 µM in the experiment with DU-145 prostate. Besides, the TGI in the experiment on UACC-62 melanoma, with ACHN renal, with NCI/ADR-RES ovarian, in the experiment with K-562 leukemia, with HOP-92 NSCLC and in the experiment on UO-31 renal was greater than 100 µM each time. Further, the TGI in the experiment with TK-10 renal is greater than 100 µM.
For `CC(C)(C)C1=CC(=C2C=Cc3cc(O)ccc3O2)C=C(C(C)(C)C)C1=O`, the TGI with SNB-19 CNS was 3.3 µM; with SNB-75 CNS, 3.3 µM; in the experiment with NCI-H460 lung, 2.7 µM; in the experiment with OVCAR-5 ovarian, 3.94 µM; in the experiment on COLO 205 colon, 3.25 µM; in the experiment with SN12C renal, 3.02 µM. Also, the TGI was 3.43 µM in the experiment on NCI-H226 lung; 3.16 µM with RXF 393 renal; 3.86 µM in the experiment on SR leukemia; 2.69 µM with U251 CNS; 3.18 µM in the experiment with MDA-MB-231 breast; 3.03 µM with DU-145 prostate. Besides, the TGI in the experiment with UACC-62 melanoma came to 2.76 µM; in the experiment with ACHN renal, 3.06 µM; in the experiment with NCI/ADR-RES ovarian, 4.9 µM; in the experiment with K-562 leukemia, 8.51 µM; with HOP-92 NSCLC, 3.19 µM; in the experiment with UO-31 renal it was 2.5 µM. The TGI in the experiment with TK-10 renal was determined as 3.09 µM.
For `CN1C(=O)[C@H](c2c[nH]c3ccccc23)[C@H](c2c[nH]c3ccccc23)C1=O`, the TGI in the experiment on SNB-19 CNS is greater than 100 µM; in the experiment on SNB-75 CNS, greater than 92.8 µM; in the experiment with NCI-H460 lung it was greater than 50.1 µM; in the experiment with OVCAR-5 ovarian, greater than 100 µM; in the experiment on COLO 205 colon, greater than 37.9 µM; in the experiment on SN12C renal, greater than 100 µM. Also, the TGI in the experiment with NCI-H226 lung was 97.6 µM; in the experiment on RXF 393 renal it was greater than 90.6 µM; with SR leukemia it was greater than 74.5 µM; in the experiment on U251 CNS, greater than 90.1 µM; with MDA-MB-231 breast it was greater than 31.8 µM; in the experiment on DU-145 prostate it was greater than 100 µM. Besides, the TGI in the experiment with UACC-62 melanoma was greater than 54.4 µM; with ACHN renal, greater than 66.3 µM; in the experiment on NCI/ADR-RES ovarian it was greater than 85.9 µM; in the experiment with K-562 leukemia, greater than 69.5 µM; in the experiment with HOP-92 NSCLC, greater than 67.3 µM; with UO-31 renal it was 62.4 µM. The same compound displayed a TGI in the experiment with TK-10 renal of 61.2 µM.
Regarding `COc1ccc2c(C)cc(N/N=C/c3ccc(C)s3)nc2c1`, the TGI with SNB-19 CNS was greater than 67.2 µM; in the experiment with SNB-75 CNS it was greater than 83.9 µM; in the experiment with NCI-H460 lung, 20 µM; in the experiment with OVCAR-5 ovarian, 30.2 µM; in the experiment with COLO 205 colon, 9.24 µM; with SN12C renal, 37.3 µM. For the same compound, the TGI was 51.7 µM in the experiment on NCI-H226 lung; 33.8 µM with RXF 393 renal; 31 µM in the experiment on SR leukemia; greater than 48 µM in the experiment with U251 CNS; 29.1 µM in the experiment with MDA-MB-231 breast; 23.9 µM in the experiment with DU-145 prostate. The TGI is greater than 54.6 µM in the experiment on UACC-62 melanoma; greater than 52.4 µM with ACHN renal; 73.5 µM in the experiment on NCI/ADR-RES ovarian; greater than 100 µM with K-562 leukemia; greater than 51.6 µM in the experiment with HOP-92 NSCLC; 35.4 µM in the experiment on UO-31 renal. Moreover, in the experiment on TK-10 renal, the TGI was greater than 54.3 µM.
Turning to `CC(C)[C@@H]1CC[C@@H](C)C[C@H]1OC(=O)/C=C1\C(C(=O)O[C@@H]2C[C@H](C)CC[C@H]2C(C)C)[C@H]2C=C[C@@H]1O2` (stereo partly drawn), the TGI in the experiment with SNB-19 CNS, in the experiment on SNB-75 CNS, in the experiment with NCI-H460 lung, in the experiment on OVCAR-5 ovarian, with COLO 205 colon and in the experiment on SN12C renal was greater than 100 µM each time. Besides, the TGI in the experiment on NCI-H226 lung, in the experiment on RXF 393 renal, in the experiment on SR leukemia, in the experiment with U251 CNS, with MDA-MB-231 breast and with DU-145 prostate was greater than 100 µM in each case. The TGI in the experiment on UACC-62 melanoma, in the experiment with ACHN renal, in the experiment on NCI/ADR-RES ovarian, in the experiment with K-562 leukemia, in the experiment with HOP-92 NSCLC and in the experiment with UO-31 renal was greater than 100 µM each time. Further, the TGI in the experiment on TK-10 renal is greater than 100 µM.
`Clc1cc(OCc2nn3c(Cc4ccccc4)nnc3s2)c(Cl)cc1OCc1nn2c(Cc3ccccc3)nnc2s1`: the TGI is 95.8 µM with SNB-19 CNS; 9.97 µM with SNB-75 CNS; greater than 100 µM in the experiment with NCI-H460 lung; greater than 100 µM with OVCAR-5 ovarian; greater than 100 µM in the experiment on COLO 205 colon; greater than 100 µM in the experiment with SN12C renal. In addition, the TGI in the experiment with NCI-H226 lung is greater than 100 µM; in the experiment on RXF 393 renal, 75.4 µM; in the experiment with SR leukemia, 10.4 µM; in the experiment with U251 CNS, greater than 100 µM; in the experiment on MDA-MB-231 breast, greater than 100 µM; in the experiment with DU-145 prostate it was greater than 100 µM. The TGI in the experiment on UACC-62 melanoma was greater than 100 µM; with ACHN renal, greater than 100 µM; in the experiment on NCI/ADR-RES ovarian, greater than 100 µM; with K-562 leukemia, 24.2 µM; with HOP-92 NSCLC, 61.2 µM; in the experiment on UO-31 renal it was greater than 100 µM. The same compound returned a TGI in the experiment on TK-10 renal greater than 100 µM.
As for `O=c1[nH]c2ccc(Cl)cc2o1`, the TGI with SNB-19 CNS, in the experiment with SNB-75 CNS, in the experiment on NCI-H460 lung, with OVCAR-5 ovarian, in the experiment on COLO 205 colon and with SN12C renal was greater than 100 µM each time. Also, the TGI with NCI-H226 lung, in the experiment with RXF 393 renal, in the experiment on SR leukemia, with U251 CNS, with MDA-MB-231 breast and with DU-145 prostate was greater than 100 µM throughout. The TGI in the experiment with UACC-62 melanoma, in the experiment with ACHN renal, in the experiment with NCI/ADR-RES ovarian, in the experiment with K-562 leukemia, in the experiment on HOP-92 NSCLC and in the experiment with UO-31 renal was greater than 100 µM in each case. The TGI in the experiment with TK-10 renal is greater than 100 µM.
